{
  "source": "patent EP0385952A2",
  "about": "“Use of a naphthalenmethanamino derivative as antiinflammatory agent and pharmaceutical compositions containing it” (SANDOZ AG, priority 1989, dated 1990)",
  "type_in_all_cases": "in vivo",
  "key": {"[1]": {"system": "mice", "assay": "Croton oil-induced pinnal swelling in mice (irritant contact dermatitis, 2.1.2.)", "conditions": "simultaneous, topical, pinnal weight after 6 hours", "protocol": "(§1) Skin irritation with arachidonic acid or cantharidin is often used to experimentally induce inflammation in order to evaluate the anti-inflammatory activity of a compound [see e.g. Inflammation 8 (1984) 134-135; 10 (1986) 205-214]. NMRI mice (8 animals per group) receive 10 µl of a 10 % solution of arachidonic acid [J.M. Young et al., J. Invest. Derm. 82 (1986) 367-371] in acetone or, respectively, 0.08 % cantharidin [K.E. Swingle et al., Arch. Int. Pharmacodyn. Ther. 254 (1981) 168-176] in acetone applied to the medial and lateral surface of the right external ear. Treatment is performed either prophylactically 30 minutes before irritation (arachidonic acid) or, respectively, either simultaneously with the application of irritant solution or therapeutically 20 minutes after irritation (cantharidin), by a single epicutaneous application of the test compound dissolved in a mixture of N,N-dimethylacetamide, acetone and alcohol (2:2:4). The evaluation of the test group is effected by comparison with a control group of animals having received on the right ear lobe only the carrier substance or the irritant solution. The animals are killed 1.5 hours (arachidonic acid) or, respectively, 17 hours (cantharidin) after application of the irritant and efficacy in assessed by determination of the differences in auricular weight. Differences in weights (D) of right (involved) and left (uninvolved) pinnae of animals treated with test compound and arachidonic acid or cantharidin (T-group) are compared with differences in mice treated with arachidonic acid only or cantharidin only (C-group). Efficacy (%) is calculated according to the equation: [formula]\n(§2) This model is similar to the above (see 2.1.1.). Skin inflammation is induced with 15 µl of 0.23 % croton oil in a mixture of dimethylacetamide, acetone and ethanol (2:4:4), or with 10 µl of 0.005 % TPA [12-O-tetradecanoylphorbol-13-acetate; Sigma] prepared in acetone with 0.5 % dimethylsulfoxide. Topical treatment is performed either simultaneously with the irritation (croton oil) or 20 minutes after the application (TPA). The test compound is prepared in DAE. Efficacy is assessed 6 hours after onset of irritation by determination of the auricular weight as described above."}, "[2]": {"system": "NMRI mice", "assay": "Arachidonic acid-induced pinnal swelling in mice (irritant contact dermatitis, 2.1.1.)", "conditions": "prophylactic, epicutaneous, pinnal weight", "protocol": "as §1"}, "[3]": {"system": "mice", "assay": "TPA-induced pinnal swelling in mice (irritant contact dermatitis, 2.1.2.)", "conditions": "therapeutic, topical, pinnal weight after 6 hours", "protocol": "as §1, §2"}, "[4]": {"system": "NMRI mice", "assay": "Cantharidin-induced pinnal swelling in mice (irritant contact dermatitis, 2.1.1.)", "conditions": "epicutaneous, pinnal weight", "protocol": "as §1"}, "[5]": {"system": "guinea pigs", "assay": "UV-erythema model (2.2.)", "conditions": "therapeutic, test concentration 5.0 %, topical, erythema score", "protocol": "Female guinea pigs weighing 250-300 g are used. On the day before experiment they are shorn on both flanks followed by a final dry shaving without skin irritation two hours before UV exposure. Two circular areas (10 mm diameter) on each flank are exposed 10 seconds to ultraviolet rays from […] at an intensity of 16 mW/cm² (UVA) and 500 mW/cm² (UVB). Drugs are administered topically immediately after exposure to UV light in a volume of 50 µl of 25 % ethanol and 75 %polyethylenglycol-400 to the irradiated skin areas on the right flank. Two areas on the left flank serve as vehicle control. Erythema is assessed visually 3.5 and 5.5 hours after irradiation and results expressed in scores. Changes in erythema intensity after drug administration are expressed as percentages of the scored erythema intensity in vehicle-treated areas."}},
  "note": "Marks after values point to notes of the source that are not given here.",
  "data": [
    {"smiles": "CCCCOc1ccc(CC(=O)NO)cc1", "note": "[Bufexamac, 2-[p-(n-butyloxy)phenyl]-acetohydroxamic acid, reference compound]", "values": [
      {"measurement": "Efficacy (%)", "setting": "[1]; test concentration 1.2 %", "value": 11, "unit": "%"},
      {"measurement": "Efficacy (%)", "setting": "[1]; test concentration 3.6 %", "value": "36** %"},
      {"measurement": "Efficacy (%)", "setting": "[2]; test concentration 1.2 %", "value": "35* %"},
      {"measurement": "Efficacy (%)", "setting": "[2]; test concentration 3.6 %", "value": "22* %"},
      {"measurement": "Efficacy (%)", "setting": "[3]; test concentration 1.2 %", "value": 1, "unit": "%"},
      {"measurement": "Efficacy (%)", "setting": "[3]; test concentration 3.6 %", "value": 2, "unit": "%"},
      {"measurement": "Efficacy (%)", "setting": "[4]; simultaneous, test concentration 1.2 %", "value": 36, "unit": "%"},
      {"measurement": "Efficacy (%)", "setting": "[4]; simultaneous, test concentration 3.6 %", "value": 29, "unit": "%"},
      {"measurement": "Efficacy (%)", "setting": "[4]; therapeutic, test concentration 1.2 %", "value": 22, "unit": "%"},
      {"measurement": "Efficacy (%)", "setting": "[4]; therapeutic, test concentration 3.6 %", "value": 14, "unit": "%"},
      {"measurement": "Efficacy (%)", "setting": "[5]", "value": 8, "unit": "%"}
    ]}
  ]
}
